Data on 1 compound can be found in US20220155322A1, “USE OF NATRIURETIC PEPTIDES TO ASSESS AND TREAT ACUTE KIDNEY INJURY” (Mayo Foundation for Medical Education and Research, priority 2019, published 2022).

Assay [1] relates to ischemic AKI model in normal mongrel canines. The class given is in vivo, canine. The following applies: after ischemia, 16.3 pmol/kg/min. How it is done:
Ischemic Acute Kidney Injury in Canines: An ischemic AKI model in normal mongrel canines (male, 25-30 kg, n=5 per group) was created with high dose intravenous indomethacin infusion (10 mg/kg with NaHCO3[5 mg/kg] dissolved in 50 ml distilled water) followed by suprarenal ACC (Sandok et al., J Am Soc Nephrol, 196-202, 1992). Briefly, canines were anesthetized with intravenous pentobarbital (15-30 mg/kg) and fentanyl (4-12 μg/kg), intubated, and mechanically ventilated on air with supplemental oxygen, 3 L/minute, 12 cycles/minute (Harvard Apparatus; […], Mass.). The femoral and carotid arteries were accessed for mean arterial pressure (MAP) monitoring and blood sampling. The femoral vein was cannulated for continuous inulin infusion and saline/indomethacin/drug infusions. The left renal artery was attached with a probe for renal blood flow (RBF) measurement and a catheter was placed in the left ureter for passive urine collection. A flow-directed balloon-tipped thermodilution catheter was advanced to the pulmonary artery through the external jugular vein for measurement of cardiac filling pressures and cardiac output (CO). After a 60 minute equilibration, baseline (BL) characteristics were established. […] GFR values were calculated based on inulin clearance. Urinary sodium was measured with pHOx Ultra (Nova Biomedical; Waltham, Mass.).

The test system of a further assay is Caspase7 gene. Description: Caspase7 real time PCR in H/R HRPTC. The following applies: H/R with 10^−6 M CRRL269, H/R alone 1.89 fold, normalized to B2M. It counts as cell-based, human. How it is done: Apoptosis Pathway PCR Array and Caspase7 Real Time PCR: Two groups of HRPTC (vehicle and 10^−6 M CRRL269) that underwent oil induced H/R, and a negative control (Neg Ctrl) group with no H/R stress, were cultured in 6-well plates as described above, and total RNA was collected using the Trizol method (Thermo Fisher Scientific; Waltham, Mass.). RNA was reverse transcribed for cDNA for PCR RT2 array experiments. Apoptosis pathway PCR array (Qiagen; Germantown, Md.) was conducted using the SYBR green (Bio-Rad Laboratories; Hercules, Calif.) method in a Lightcycler 480 (Roche Diagonostics; Indianapolis, Ind.). Raw data were analyzed with the online Qiagen RT2 PCR analysis program. […] A Caspase7 RT-PCR primer (PPH00110C-200, Qiagen) was obtained, and RT-PCR reactions were performed using the SYBR green method in a Lightcycler 480. The B2M gene (primer PPH01094E, Qiagen) was used for normalization.
A general note: Real-time PCR tracks product formation cycle by cycle.

Positions of bridges follow the written chain, without caps; N, C: chain ends. Residues, ends and D or L forms follow the SMILES beside them.

Consider `CC[C@H](C)[C@@H]1NC(=O)[C@H](CCCNC(=N)N)NC(=O)[C@H](CC(=O)O)NC(=O)[C@H](CCSC)NC(=O)[C@H](CCCCN)NC(=O)[C@H](CCCNC(=N)N)NC(=O)CNC(=O)[C@H](Cc2ccccc2)NC(=O)[C@@H](NC(=O)[C@H](CO)NC(=O)[C@H](CO)NC(=O)[C@H](CCCNC(=N)N)NC(=O)[C@H](CCCNC(=N)N)NC(=O)[C@H](CC(C)C)NC(=O)[C@H](CO)NC(=O)[C@H](CCCNC(=N)N)NC(=O)[C@@H]2CCCN2C(=O)[C@H](C)NC(=O)[C@@H](N)[C@@H](C)O)CSSC[C@@H](C(=O)N[C@@H](CC(N)=O)C(=O)N[C@@H](CO)C(=O)N[C@@H](Cc2ccccc2)C(=O)N[C@@H](CCCNC(=N)N)C(=O)N[C@@H](Cc2ccc(O)cc2)C(=O)O)NC(=O)CNC(=O)[C@H](CC(C)C)NC(=O)CNC(=O)[C@H](CO)NC(=O)[C@H](CO)NC(=O)[C@H](CO)NC(=O)[C@H](CO)NC1=O` [CRRL269] (H-TAPRSLRRSSCFGRKMDRISSSSGLGCNSFRY-OH; disulfide 11-27), for which, in assay [1], the “pulmonary capillary wedge pressure (PCWP)” value is “reduced” and the “right atrial pressure (RAP)” value is recorded as “reduced”. For the same compound, the “Caspase7 gene expression level (RT-PCR)” value in the assay with Caspase7 gene is given as 1.25 fold.
